Consider 28 molecules from ChEMBL document CHEMBL3397028, “Synthesis and antimicrobial activity of novel benzoxazine sulfonamide derivatives” (2015).

As usually defined, the MIC is the lowest concentration found to suppress growth.

Values after ≈ are worked out from the molar mass of the structure shown.

Assay type in all cases: functional
In test [1] the test system is Escherichia coli. Briefly: Antimicrobial activity against Escherichia coli MTCC 1089 after 18 hrs by broth micro dilution method. The note with it: MTCC 1089, 18 h.
Test [2] deals with Xanthomonas campestris. Briefly: Antimicrobial activity against Xanthomonas campestris after 18 hrs by broth micro dilution method.
The test system of test [3] is Priestia megaterium. Briefly: Antimicrobial activity against Bacillus megaterium MTCC 3382 after 18 hrs by broth micro dilution method. The note with it: MTCC 3382, 18 h.
In test [4] the test system is Pseudomonas aeruginosa. Briefly: Antimicrobial activity against Pseudomonas aeruginosa MTCC 1034 after 18 hrs by broth micro dilution method. The note with it: MTCC 1034, 18 h.
Test [5] has as its system Candida albicans. Briefly: Antimicrobial activity against Candida albicans MTCC 183 after 48 to 72 hrs by broth micro dilution method.

As to `O=C1COc2ccc(S(=O)(=O)NCCCN3CCN(c4ccc(F)cc4)CC3)cc2N1`, the MIC is 500 µg/mL (≈ 1110 µM) in test [1]; 125 µg/mL (≈ 279 µM) in test [2]; 250 µg/mL (≈ 557 µM) in test [3]; 62.5 µg/mL (≈ 139 µM) in test [4]; 250 µg/mL (≈ 557 µM) in test [5].
As for `OC(Cn1cncn1)(Cn1cncn1)c1ccc(F)cc1F` [FLUCONAZOLE], it took 32 µg/mL (≈ 104 µM) to inhibit growth in test [5] (MIC).
On to `COc1ccccc1N1CCN(CCCNS(=O)(=O)c2ccc3c(c2)NC(=O)CO3)CC1`, for which the MIC in test [1] was 250 µg/mL (≈ 543 µM); in test [2] it was 125 µg/mL (≈ 271 µM); in test [3], 31.2 µg/mL (≈ 67.9 µM); in test [4], 125 µg/mL (≈ 271 µM); in test [5] it was 62.5 µg/mL (≈ 136 µM).
As to `COc1ccc(C(=O)CN2C(=O)COc3cc(C)c(S(=O)(=O)N4CCN(c5ccccc5OC)CC4)cc32)cc1`, the MIC in test [1] came out at 62.5 µg/mL (≈ 110 µM); in test [2], 62.5 µg/mL (≈ 110 µM); in test [3] it was 31.2 µg/mL (≈ 55.2 µM); in test [4] it was 31.2 µg/mL (≈ 55.2 µM); in test [5] it was 31.2 µg/mL (≈ 55.2 µM).
Turning to `COc1ccccc1N1CCN(CCCNS(=O)(=O)c2cc3c(cc2C)OCC(=O)N3)CC1`, the MIC in test [1] was 500 µg/mL (≈ 1050 µM); in test [2], 500 µg/mL (≈ 1050 µM); in test [3] it was 250 µg/mL (≈ 527 µM); in test [4] it was 500 µg/mL (≈ 1050 µM); in test [5], 250 µg/mL (≈ 527 µM).
As to `COc1ccccc1N1CCN(S(=O)(=O)c2cc3c(cc2C)OCC(=O)N3)CC1`, the MIC is 500 µg/mL (≈ 1200 µM) in test [1]; 500 µg/mL (≈ 1200 µM) in test [2]; 250 µg/mL (≈ 599 µM) in test [3]; 500 µg/mL (≈ 1200 µM) in test [4]; 500 µg/mL (≈ 1200 µM) in test [5].
As to `O=C1COc2ccc(S(=O)(=O)NCCCN3CCN(c4ccc(C(F)(F)F)cc4)CC3)cc2N1`, the MIC in test [1] was 500 µg/mL (≈ 1000 µM); in test [2], 125 µg/mL (≈ 251 µM); in test [3], 62.5 µg/mL (≈ 125 µM); in test [4] it was 125 µg/mL (≈ 251 µM); in test [5], 125 µg/mL (≈ 251 µM).
For the molecule `Cc1cc2c(cc1S(=O)(=O)NCCCN1CCN(c3ccccc3F)CC1)NC(=O)CO2`, the MIC in test [1], in test [2], in test [3], in test [4] and in test [5] was 250 µg/mL (≈ 540 µM) throughout.
Take `COc1ccccc1N1CCN(S(=O)(=O)c2cc3c(cc2C)OCC(=O)N3CC(=O)c2ccc(Cl)cc2)CC1`: the MIC amounted to 250 µg/mL (≈ 439 µM) in test [1]; 125 µg/mL (≈ 219 µM) in test [2]; 250 µg/mL (≈ 439 µM) in test [3]; 250 µg/mL (≈ 439 µM) in test [4]; 250 µg/mL (≈ 439 µM) in test [5].
On to `Cc1cc2c(cc1S(=O)(=O)N1CCN(c3ccc(C(F)(F)F)cc3)CC1)N(CC(=O)c1ccc(Cl)cc1)C(=O)CO2`, for which the MIC in test [1] is 500 µg/mL (≈ 822 µM); in test [2] it was 500 µg/mL (≈ 822 µM); in test [3] it was 250 µg/mL (≈ 411 µM); in test [4], 500 µg/mL (≈ 822 µM); in test [5], 500 µg/mL (≈ 822 µM).
Consider `Cc1cc2c(cc1S(=O)(=O)N1CCN(c3ccc(C(F)(F)F)cc3)CC1)N(CC(=O)c1ccc(-c3ccccc3)cc1)C(=O)CO2`, for which the MIC in test [1] is 250 µg/mL (≈ 385 µM); in test [2], 125 µg/mL (≈ 192 µM); in test [3] it was 125 µg/mL (≈ 192 µM); in test [4], 125 µg/mL (≈ 192 µM); in test [5], 125 µg/mL (≈ 192 µM).
On to `Cc1cc2c(cc1S(=O)(=O)NCCCN1CCN(c3ccccc3)CC1)NC(=O)CO2`, for which the MIC in test [1], in test [2], in test [3], in test [4] and in test [5] was 250 µg/mL (≈ 562 µM) throughout.
For the molecule `COc1ccccc1N1CCN(S(=O)(=O)c2cc3c(cc2C)OCC(=O)N3CC(=O)c2ccc(C)cc2)CC1`, the MIC in test [1] amounted to 62.5 µg/mL (≈ 114 µM); in test [2] it was 125 µg/mL (≈ 227 µM); in test [3], 125 µg/mL (≈ 227 µM); in test [4] it was 62.5 µg/mL (≈ 114 µM); in test [5], 62.5 µg/mL (≈ 114 µM).
For the molecule `O=C1COc2ccc(S(=O)(=O)NCCCN3CCN(c4ccccc4)CC3)cc2N1`, the MIC was found to be 500 µg/mL (≈ 1160 µM) in test [1]; 500 µg/mL (≈ 1160 µM) in test [2]; 250 µg/mL (≈ 581 µM) in test [3]; 500 µg/mL (≈ 1160 µM) in test [4]; 500 µg/mL (≈ 1160 µM) in test [5].
As to `COc1ccccc1N1CCN(S(=O)(=O)c2cc3c(cc2C)OCC(=O)N3CC(=O)c2cccs2)CC1`, the MIC was 250 µg/mL (≈ 462 µM) in test [1]; 250 µg/mL (≈ 462 µM) in test [2]; 500 µg/mL (≈ 923 µM) in test [3]; 250 µg/mL (≈ 462 µM) in test [4]; 250 µg/mL (≈ 462 µM) in test [5].
Take `Cc1cc2c(cc1S(=O)(=O)N1CCN(c3ccc(C(F)(F)F)cc3)CC1)N(CC(=O)c1ccccc1)C(=O)CO2`: the minimal inhibitory concentration (MIC) in test [1], in test [2], in test [3], in test [4] and in test [5] was 250 µg/mL (≈ 436 µM) in each case.
For `COc1ccc(C(=O)CN2C(=O)COc3cc(C)c(S(=O)(=O)N4CCN(c5ccc(C(F)(F)F)cc5)CC4)cc32)cc1`, the MIC in test [1] is 250 µg/mL (≈ 414 µM); in test [2] it was 250 µg/mL (≈ 414 µM); in test [3], 62.5 µg/mL (≈ 104 µM); in test [4], 125 µg/mL (≈ 207 µM); in test [5], 250 µg/mL (≈ 414 µM).
For `COc1ccccc1N1CCN(S(=O)(=O)c2cc3c(cc2C)OCC(=O)N3CC(=O)c2ccc([N+](=O)[O-])cc2)CC1`, the minimum inhibitory concentration (MIC) in test [1] is 250 µg/mL (≈ 431 µM); in test [2] it was 125 µg/mL (≈ 215 µM); in test [3] it was 62.5 µg/mL (≈ 108 µM); in test [4], 250 µg/mL (≈ 431 µM); in test [5], 250 µg/mL (≈ 431 µM).
On to `Cc1cc2c(cc1S(=O)(=O)N1CCN(c3ccc(C(F)(F)F)cc3)CC1)NC(=O)CO2`, for which the MIC in test [1] came out at 500 µg/mL (≈ 1100 µM); in test [2], 500 µg/mL (≈ 1100 µM); in test [3], 250 µg/mL (≈ 549 µM); in test [4] it was 250 µg/mL (≈ 549 µM); in test [5] it was 500 µg/mL (≈ 1100 µM).
Regarding `O=C1COc2ccc(S(=O)(=O)NCCCN3CCN(c4ccccc4F)CC3)cc2N1`, the MIC in test [1] worked out at 125 µg/mL (≈ 279 µM); in test [2], 62.5 µg/mL (≈ 139 µM); in test [3], 31.2 µg/mL (≈ 69.7 µM); in test [4], 62.5 µg/mL (≈ 139 µM); in test [5], 125 µg/mL (≈ 279 µM).
For `Cc1cc2c(cc1S(=O)(=O)NCCCN1CCSCC1)NC(=O)CO2`, the MIC in test [1] amounted to 500 µg/mL (≈ 1300 µM); in test [2], 250 µg/mL (≈ 648 µM); in test [3] it was 125 µg/mL (≈ 324 µM); in test [4], 500 µg/mL (≈ 1300 µM); in test [5], 250 µg/mL (≈ 648 µM).
For the molecule `Cc1cc2c(cc1S(=O)(=O)N1CCN(c3ccc(C(F)(F)F)cc3)CC1)N(CC(=O)c1ccc([N+](=O)[O-])cc1)C(=O)CO2`, the MIC in test [1] worked out at 62.5 µg/mL (≈ 101 µM); in test [2], 125 µg/mL (≈ 202 µM); in test [3] it was 31.2 µg/mL (≈ 50.5 µM); in test [4], 31.2 µg/mL (≈ 50.5 µM); in test [5], 31.2 µg/mL (≈ 50.5 µM).
As for `COc1ccccc1N1CCN(S(=O)(=O)c2cc3c(cc2C)OCC(=O)N3CC(=O)c2ccc(-c3ccccc3)cc2)CC1`, the MIC was 500 µg/mL (≈ 817 µM) in test [1]; 125 µg/mL (≈ 204 µM) in test [2]; 62.5 µg/mL (≈ 102 µM) in test [3]; 250 µg/mL (≈ 409 µM) in test [4]; 500 µg/mL (≈ 817 µM) in test [5].
For the molecule `Cc1ccc(C(=O)CN2C(=O)COc3cc(C)c(S(=O)(=O)N4CCN(c5ccc(C(F)(F)F)cc5)CC4)cc32)cc1`, the MIC turned out to be 62.5 µg/mL (≈ 106 µM) in test [1]; 125 µg/mL (≈ 213 µM) in test [2]; 125 µg/mL (≈ 213 µM) in test [3]; 31.2 µg/mL (≈ 53.2 µM) in test [4]; 250 µg/mL (≈ 425 µM) in test [5].
Consider `CO[C@H]1/C=C/O[C@@]2(C)Oc3c(C)c(O)c4c(O)c(c(/C=N/N5CCN(C)CC5)c(O)c4c3C2=O)NC(=O)/C(C)=C\C=C\[C@H](C)[C@H](O)[C@@H](C)[C@@H](O)[C@@H](C)[C@H](OC(C)=O)[C@@H]1C` [RIFAMPIN], for which the MIC in test [1] is 64 µg/mL (≈ 77.8 µM); in test [2], 32 µg/mL (≈ 38.9 µM); in test [3], 64 µg/mL (≈ 77.8 µM); in test [4], 32 µg/mL (≈ 38.9 µM).
On to `Cc1cc2c(cc1S(=O)(=O)NCCCN1CCN(c3ccc(C(F)(F)F)cc3)CC1)NC(=O)CO2`, for which the MIC in test [1] came out at 250 µg/mL (≈ 488 µM); in test [2], 62.5 µg/mL (≈ 122 µM); in test [3], 62.5 µg/mL (≈ 122 µM); in test [4] it was 250 µg/mL (≈ 488 µM); in test [5] it was 125 µg/mL (≈ 244 µM).
For the molecule `Cc1cc2c(cc1S(=O)(=O)N1CCN(c3ccc(C(F)(F)F)cc3)CC1)N(CC(=O)c1cccs1)C(=O)CO2`, the MIC in test [1] was 125 µg/mL (≈ 216 µM); in test [2], 125 µg/mL (≈ 216 µM); in test [3], 31.2 µg/mL (≈ 53.9 µM); in test [4] it was 31.2 µg/mL (≈ 53.9 µM); in test [5] it was 31.2 µg/mL (≈ 53.9 µM).
In the case of `COc1ccccc1N1CCN(S(=O)(=O)c2cc3c(cc2C)OCC(=O)N3CC(=O)c2ccccc2)CC1`, the MIC in test [1] was found to be 125 µg/mL (≈ 233 µM); in test [2], 62.5 µg/mL (≈ 117 µM); in test [3], 62.5 µg/mL (≈ 117 µM); in test [4], 125 µg/mL (≈ 233 µM); in test [5], 62.5 µg/mL (≈ 117 µM).
